This note sets out measurements from article PMC5367156 (ACS chemical biology, 2016).

The target in the assay is NRF2 (nuclear factor erythroid 2-related factor 2) (Homo sapiens, UniProt Q16236). Nature of the assay: FP displacement of fluorescein-ARE DNA from purified NRF2-MAFG. The format is binding.
Chain of NRF2 (nuclear factor erythroid 2-related factor 2) (O15525 whole entry): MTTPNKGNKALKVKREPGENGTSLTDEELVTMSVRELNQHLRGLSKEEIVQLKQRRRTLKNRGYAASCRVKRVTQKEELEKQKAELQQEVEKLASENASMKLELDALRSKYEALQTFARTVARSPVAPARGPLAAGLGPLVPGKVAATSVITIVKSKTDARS
Chain of NRF2 (nuclear factor erythroid 2-related factor 2) (Q16236 whole entry): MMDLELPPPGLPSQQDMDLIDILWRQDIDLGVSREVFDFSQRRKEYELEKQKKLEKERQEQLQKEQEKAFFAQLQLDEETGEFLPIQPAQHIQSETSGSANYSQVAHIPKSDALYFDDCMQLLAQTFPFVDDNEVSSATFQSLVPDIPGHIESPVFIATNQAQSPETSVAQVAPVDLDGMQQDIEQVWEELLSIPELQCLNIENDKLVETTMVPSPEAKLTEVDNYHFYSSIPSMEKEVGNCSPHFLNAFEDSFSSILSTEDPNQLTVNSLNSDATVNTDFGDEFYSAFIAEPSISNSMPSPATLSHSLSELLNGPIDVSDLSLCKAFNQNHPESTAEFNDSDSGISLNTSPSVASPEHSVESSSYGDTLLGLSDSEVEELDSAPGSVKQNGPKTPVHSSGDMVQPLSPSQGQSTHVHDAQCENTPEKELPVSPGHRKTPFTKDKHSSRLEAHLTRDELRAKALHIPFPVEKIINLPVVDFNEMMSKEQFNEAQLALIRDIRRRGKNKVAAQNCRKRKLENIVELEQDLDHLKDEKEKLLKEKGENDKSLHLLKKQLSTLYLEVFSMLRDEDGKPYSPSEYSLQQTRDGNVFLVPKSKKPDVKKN

Broadly, the IC50 is the concentration needed to halve the response being measured. Low readings indicate higher potency, high ones lower potency. `Cc1ccccc1C(=O)N1CCc2cc(-c3nc(NC(=O)Cc4ccc5c(c4)OCO5)sc3C)ccc21` [compound 2, ML385] returned a half-maximal inhibitory concentration (IC50) of 1900 nM. In other words, the single-digit micromolar range.
